According to PubChem BioAssay (NCI):
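Method: 48-hour compound exposure of cells in 96-well plates, five concentrations, linear interpolation of endpoints. TGI denotes the concentration required for complete inhibition of growth.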

Legend:
Experiment in all cases: NCI anticancer screen, dose series, 48 h
[1] = test system: DMS 273 small cell lung
[2] = test system: HOP-18 NSCLC
[3] = test system: SNB-78 CNS
[4] = test system: LXFL 529 NSCLC
[5] = test system: XF 498 CNS
[6] = test system: M19-MEL melanoma
[7] = test system: KM20L2 colon
[8] = test system: RXF-631 renal

CSc1nc(NC2OCC(OC(C)=O)C(OC(C)=O)C2OC(C)=O)c(N=C(C)C(C)=O)c(=O)[nH]1 (stereo unspecified)
TGI [1]: > 100 µM | TGI [2]: > 100 µM | TGI [3]: > 100 µM | TGI [4]: > 100 µM | TGI [5]: > 100 µM

Cc1nc2c(n1C)C(=O)c1nc(CBr)[nH]c(=O)c1C2=O
TGI [1]: > 100 µM | TGI [2]: > 100 µM | TGI [6]: > 100 µM | TGI [4]: > 100 µM | TGI [7]: > 100 µM

C=CCc1cc(-c2cc(CC=C)c(O)c(CNC)c2)cc(CNC)c1O
TGI [3]: 40.8 µM | TGI [6]: 27.2 µM | TGI [4]: 28.5 µM | TGI [8]: 28.8 µM | TGI [5]: 30.3 µM | TGI [7]: 30.8 µM

CCCCCCCCCCCCCCCc1ccc(OCC(O)CO)cc1 (stereo unspecified)
TGI [1]: 33.3 µM | TGI [2]: > 100 µM | TGI [3]: 99.3 µM | TGI [6]: 33.4 µM | TGI [4]: 68 µM | TGI [8]: 71.6 µM | TGI [5]: 39.3 µM | TGI [7]: 94.4 µM

Cc1ccc(NP(=O)(Oc2ccccc2)N(CCCl)CCCl)cc1 (stereo unspecified)
TGI [1]: > 100 µM | TGI [2]: > 100 µM | TGI [3]: > 100 µM | TGI [6]: > 100 µM | TGI [4]: > 100 µM | TGI [8]: > 100 µM | TGI [7]: > 100 µM

CN(C)c1nc(N(C)C)nc(N(C)CN(C)c2ccc(Cl)cc2)n1
TGI [1]: > 100 µM | TGI [3]: > 100 µM | TGI [6]: > 100 µM | TGI [4]: > 100 µM | TGI [5]: > 100 µM
